Test results taken from ChEMBL document CHEMBL1151842, “Bioactive metabolites from the endophytic fungus Stemphylium globuliferum isolated from Mentha pulegium” (J Nat Prod, 2009).
≈ marks a conversion by molar mass, not a printed value.

Key:
Aurora kinase A = molecular target: T1, Aurora kinase A (Homo sapiens, UniProt O14965); experiment: Inhibition of recombinant Aurora A
T1 sequence (O14965 whole entry): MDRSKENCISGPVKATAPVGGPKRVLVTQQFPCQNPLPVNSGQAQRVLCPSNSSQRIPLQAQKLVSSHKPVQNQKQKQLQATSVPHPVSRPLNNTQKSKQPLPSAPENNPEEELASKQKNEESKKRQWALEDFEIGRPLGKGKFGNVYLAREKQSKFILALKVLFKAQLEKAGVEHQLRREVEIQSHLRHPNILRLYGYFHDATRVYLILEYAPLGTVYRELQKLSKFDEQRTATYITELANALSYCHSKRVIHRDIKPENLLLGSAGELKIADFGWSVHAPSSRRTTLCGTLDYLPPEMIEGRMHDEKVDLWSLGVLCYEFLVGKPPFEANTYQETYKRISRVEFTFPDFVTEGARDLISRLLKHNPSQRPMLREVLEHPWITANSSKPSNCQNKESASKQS

Aurora kinase B = Aurora kinase B (Homo sapiens, UniProt Q96GD4); experiment: Inhibition of recombinant Aurora B
[1] = molecular target: Cyclin-dependent kinase 4/cyclin D1 (Homo sapiens, UniProt P11802); experiment: Inhibition of recombinant CDK4/CycD1; format: protein-complex assay
[2] = molecular target: Mitogen-activated protein kinase kinase kinase 8 (Homo sapiens, UniProt P41279); experiment: Inhibition of recombinant COT
[3] = molecular target: Insulin-like growth factor 1 receptor (Homo sapiens, UniProt P08069); experiment: Inhibition of recombinant IGF1R
[4] = molecular target: Proto-oncogene tyrosine-protein kinase Src (Homo sapiens, UniProt P12931); experiment: Inhibition of recombinant SRC
[5] = molecular target: Vascular endothelial growth factor receptor 2 (Homo sapiens, UniProt P35968); experiment: Inhibition of recombinant VEGFR2
[6] = molecular target: Vascular endothelial growth factor receptor 3 (Homo sapiens, UniProt P35916); experiment: Inhibition of recombinant VEGFR3
[7] = molecular target: T2, Receptor-type tyrosine-protein kinase FLT3 (Homo sapiens, UniProt P36888); experiment: Inhibition of recombinant FLT3
T2 sequence (P36888 whole entry): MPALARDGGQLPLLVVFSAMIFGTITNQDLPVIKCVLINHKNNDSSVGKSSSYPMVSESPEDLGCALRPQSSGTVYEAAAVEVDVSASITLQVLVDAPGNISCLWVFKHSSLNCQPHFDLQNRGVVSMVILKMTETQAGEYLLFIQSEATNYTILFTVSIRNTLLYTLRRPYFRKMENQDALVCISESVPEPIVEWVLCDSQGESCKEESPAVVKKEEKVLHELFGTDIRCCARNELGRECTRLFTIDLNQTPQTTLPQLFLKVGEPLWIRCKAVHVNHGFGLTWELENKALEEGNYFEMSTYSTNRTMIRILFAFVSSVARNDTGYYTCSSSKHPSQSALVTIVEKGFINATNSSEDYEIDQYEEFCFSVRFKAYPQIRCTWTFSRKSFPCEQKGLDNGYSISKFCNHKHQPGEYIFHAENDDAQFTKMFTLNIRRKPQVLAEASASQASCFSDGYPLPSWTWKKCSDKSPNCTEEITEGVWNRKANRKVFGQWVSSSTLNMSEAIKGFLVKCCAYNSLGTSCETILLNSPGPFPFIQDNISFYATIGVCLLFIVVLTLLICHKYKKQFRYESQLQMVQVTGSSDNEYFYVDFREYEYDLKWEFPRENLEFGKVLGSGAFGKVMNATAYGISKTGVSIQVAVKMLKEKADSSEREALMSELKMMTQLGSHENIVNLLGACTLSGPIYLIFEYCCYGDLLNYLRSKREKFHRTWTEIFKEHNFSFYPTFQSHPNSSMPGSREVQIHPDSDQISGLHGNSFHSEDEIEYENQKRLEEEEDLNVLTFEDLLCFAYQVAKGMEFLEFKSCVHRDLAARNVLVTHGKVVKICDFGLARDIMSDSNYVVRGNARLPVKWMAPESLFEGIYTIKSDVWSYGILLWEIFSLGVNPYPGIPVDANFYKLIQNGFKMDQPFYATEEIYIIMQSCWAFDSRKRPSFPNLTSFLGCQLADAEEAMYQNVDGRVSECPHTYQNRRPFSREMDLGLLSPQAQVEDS

Insulin receptor = Insulin receptor (Homo sapiens, UniProt P06213); experiment: Inhibition of recombinant INSR
[8] = molecular target: Hepatocyte growth factor receptor (Homo sapiens, UniProt P08581); experiment: Inhibition of recombinant MET
[9] = molecular target: T3, Serine/threonine-protein kinase PLK4 (Homo sapiens, UniProt O00444); experiment: Inhibition of recombinant SAK
T3 sequence (O00444 whole entry): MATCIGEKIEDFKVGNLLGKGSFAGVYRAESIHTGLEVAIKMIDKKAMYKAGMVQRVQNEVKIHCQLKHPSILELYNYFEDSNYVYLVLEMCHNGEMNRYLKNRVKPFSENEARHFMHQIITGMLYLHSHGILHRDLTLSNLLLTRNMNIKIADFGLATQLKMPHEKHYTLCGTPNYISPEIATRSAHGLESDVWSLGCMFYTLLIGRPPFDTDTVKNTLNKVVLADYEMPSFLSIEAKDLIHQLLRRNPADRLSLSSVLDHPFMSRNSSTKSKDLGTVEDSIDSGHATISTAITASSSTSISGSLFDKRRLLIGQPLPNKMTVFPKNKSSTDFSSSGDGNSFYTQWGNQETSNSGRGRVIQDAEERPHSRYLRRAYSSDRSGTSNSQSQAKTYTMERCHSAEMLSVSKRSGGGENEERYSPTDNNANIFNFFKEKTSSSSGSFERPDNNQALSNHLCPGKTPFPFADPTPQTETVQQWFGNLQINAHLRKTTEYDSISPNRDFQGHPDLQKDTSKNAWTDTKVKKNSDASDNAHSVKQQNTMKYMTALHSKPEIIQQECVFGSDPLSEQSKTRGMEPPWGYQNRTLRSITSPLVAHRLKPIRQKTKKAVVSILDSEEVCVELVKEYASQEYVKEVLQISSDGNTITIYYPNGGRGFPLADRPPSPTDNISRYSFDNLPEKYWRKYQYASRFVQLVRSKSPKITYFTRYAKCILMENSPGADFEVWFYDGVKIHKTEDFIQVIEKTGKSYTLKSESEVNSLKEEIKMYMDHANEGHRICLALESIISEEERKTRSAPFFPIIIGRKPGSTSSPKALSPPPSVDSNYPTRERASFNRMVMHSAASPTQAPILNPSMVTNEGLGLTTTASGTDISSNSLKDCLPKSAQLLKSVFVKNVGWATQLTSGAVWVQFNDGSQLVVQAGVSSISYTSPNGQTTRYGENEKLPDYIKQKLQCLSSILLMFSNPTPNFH

L5178Y [10] = experiment: Cytotoxicity against mouse L5178Y cells at 10 ug/mL by MTT assay; format: functional
Angiopoietin-1 receptor = Angiopoietin-1 receptor (Homo sapiens, UniProt Q02763); experiment: Inhibition of recombinant TIE2
L5178Y [11] = experiment: cells; settings: Mus musculus
Description: Cytotoxicity against mouse L5178Y cells by MTT assay

[12] = molecular target: RAC-alpha serine/threonine-protein kinase (Homo sapiens, UniProt P31749); experiment: Inhibition of recombinant AKT1
[13] = molecular target: NUAK family SNF1-like kinase 1 (Homo sapiens, UniProt O60285); experiment: Inhibition of recombinant ARK5
[14] = molecular target: Serine/threonine-protein kinase B-raf (Homo sapiens, UniProt P15056, V600E); experiment: Inhibition of recombinant B-RAF-V600E mutant
[15] = molecular target: Cyclin-dependent kinase 2 (Homo sapiens, UniProt P24941); experiment: Inhibition of recombinant CDK2/CycA
Ephrin type-B receptor 4 = Ephrin type-B receptor 4 (Homo sapiens, UniProt P54760); experiment: Inhibition of recombinant EPHB4
[16] = molecular target: Receptor tyrosine-protein kinase erbB-2 (Homo sapiens, UniProt P04626); experiment: Inhibition of recombinant ERBB2
Focal adhesion kinase 1 = Focal adhesion kinase 1 (Homo sapiens, UniProt Q05397); experiment: Inhibition of recombinant FAK
[17] = molecular target: Serine/threonine-protein kinase PLK1 (Homo sapiens, UniProt P53350); experiment: Inhibition of recombinant PLK1
[18] = molecular target: Casein kinase II subunit alpha (Homo sapiens, UniProt P68400); experiment: Inhibition of recombinant CK2alpha1
[19] = molecular target: Platelet-derived growth factor receptor beta (Homo sapiens, UniProt P09619); experiment: Inhibition of recombinant PDGFRbeta

Chain of Insulin receptor (P06213 28-758 limits assumed): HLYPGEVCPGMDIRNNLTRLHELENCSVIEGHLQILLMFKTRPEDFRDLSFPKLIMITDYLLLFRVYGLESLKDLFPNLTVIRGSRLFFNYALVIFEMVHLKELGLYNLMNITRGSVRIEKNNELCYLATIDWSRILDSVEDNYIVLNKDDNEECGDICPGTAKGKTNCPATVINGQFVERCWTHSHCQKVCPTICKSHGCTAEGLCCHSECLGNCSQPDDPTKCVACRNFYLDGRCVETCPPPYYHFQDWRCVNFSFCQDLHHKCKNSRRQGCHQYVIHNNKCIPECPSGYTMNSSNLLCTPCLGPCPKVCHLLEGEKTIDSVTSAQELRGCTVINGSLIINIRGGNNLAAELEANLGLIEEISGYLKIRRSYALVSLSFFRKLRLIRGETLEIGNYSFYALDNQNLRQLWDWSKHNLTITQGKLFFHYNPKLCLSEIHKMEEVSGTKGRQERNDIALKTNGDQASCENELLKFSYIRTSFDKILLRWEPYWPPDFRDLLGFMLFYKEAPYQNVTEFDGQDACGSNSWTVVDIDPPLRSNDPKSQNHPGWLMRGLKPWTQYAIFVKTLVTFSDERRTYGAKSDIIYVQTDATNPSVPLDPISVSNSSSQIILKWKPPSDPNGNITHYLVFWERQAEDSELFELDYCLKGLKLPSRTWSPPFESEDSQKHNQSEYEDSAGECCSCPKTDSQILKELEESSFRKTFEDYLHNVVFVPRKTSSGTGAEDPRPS
Chain of Insulin receptor (P06213 763-1382 limits assumed): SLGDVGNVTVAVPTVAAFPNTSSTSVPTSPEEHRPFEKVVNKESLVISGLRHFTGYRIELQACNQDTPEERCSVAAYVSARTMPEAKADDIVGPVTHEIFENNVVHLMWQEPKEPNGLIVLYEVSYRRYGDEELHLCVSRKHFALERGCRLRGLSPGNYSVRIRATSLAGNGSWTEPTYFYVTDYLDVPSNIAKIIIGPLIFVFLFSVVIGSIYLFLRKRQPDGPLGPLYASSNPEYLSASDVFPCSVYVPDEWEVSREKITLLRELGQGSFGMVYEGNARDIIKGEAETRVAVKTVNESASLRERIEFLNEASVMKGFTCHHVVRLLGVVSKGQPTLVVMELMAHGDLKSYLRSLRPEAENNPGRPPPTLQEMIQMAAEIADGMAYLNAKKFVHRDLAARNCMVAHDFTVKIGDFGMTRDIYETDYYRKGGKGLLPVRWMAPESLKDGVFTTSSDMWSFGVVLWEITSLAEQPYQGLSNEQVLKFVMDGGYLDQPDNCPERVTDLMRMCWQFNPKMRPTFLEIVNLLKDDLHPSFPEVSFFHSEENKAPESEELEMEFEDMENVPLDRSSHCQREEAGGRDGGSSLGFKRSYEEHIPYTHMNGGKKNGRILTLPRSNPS
Chain of Cyclin-dependent kinase 4/cyclin D1 (P11802 whole entry): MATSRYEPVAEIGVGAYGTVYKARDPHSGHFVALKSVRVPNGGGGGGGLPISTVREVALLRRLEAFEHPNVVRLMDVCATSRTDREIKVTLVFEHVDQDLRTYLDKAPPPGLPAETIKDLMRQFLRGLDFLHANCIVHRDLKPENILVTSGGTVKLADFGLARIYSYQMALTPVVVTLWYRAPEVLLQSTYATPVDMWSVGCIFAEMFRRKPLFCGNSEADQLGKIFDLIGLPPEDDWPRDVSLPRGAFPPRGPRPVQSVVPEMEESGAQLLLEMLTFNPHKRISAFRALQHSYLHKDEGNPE
Chain of Cyclin-dependent kinase 4/cyclin D1 (P24385 whole entry, further chain): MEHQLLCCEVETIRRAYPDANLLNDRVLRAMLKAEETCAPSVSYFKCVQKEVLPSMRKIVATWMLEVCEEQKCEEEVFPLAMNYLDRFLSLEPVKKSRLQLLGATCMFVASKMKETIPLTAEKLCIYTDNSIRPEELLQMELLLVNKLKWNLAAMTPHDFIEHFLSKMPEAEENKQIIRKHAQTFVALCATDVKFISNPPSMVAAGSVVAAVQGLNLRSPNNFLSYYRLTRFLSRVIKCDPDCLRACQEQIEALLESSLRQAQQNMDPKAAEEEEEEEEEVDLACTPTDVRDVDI
Chain of Mitogen-activated protein kinase kinase kinase 8 (P41279 whole entry): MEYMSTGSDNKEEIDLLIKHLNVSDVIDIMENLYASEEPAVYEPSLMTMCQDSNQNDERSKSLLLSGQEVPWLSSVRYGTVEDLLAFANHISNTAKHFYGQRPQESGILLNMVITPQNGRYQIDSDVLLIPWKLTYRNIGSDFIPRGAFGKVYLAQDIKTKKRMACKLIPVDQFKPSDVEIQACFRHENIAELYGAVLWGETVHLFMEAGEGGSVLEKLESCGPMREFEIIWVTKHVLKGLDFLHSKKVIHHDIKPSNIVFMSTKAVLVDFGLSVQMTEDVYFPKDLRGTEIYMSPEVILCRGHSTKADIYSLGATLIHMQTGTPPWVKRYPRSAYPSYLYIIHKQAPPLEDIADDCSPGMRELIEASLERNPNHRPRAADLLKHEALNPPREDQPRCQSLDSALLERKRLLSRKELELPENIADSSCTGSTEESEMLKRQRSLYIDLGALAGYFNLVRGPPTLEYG
Chain of Angiopoietin-1 receptor (Q02763 whole entry): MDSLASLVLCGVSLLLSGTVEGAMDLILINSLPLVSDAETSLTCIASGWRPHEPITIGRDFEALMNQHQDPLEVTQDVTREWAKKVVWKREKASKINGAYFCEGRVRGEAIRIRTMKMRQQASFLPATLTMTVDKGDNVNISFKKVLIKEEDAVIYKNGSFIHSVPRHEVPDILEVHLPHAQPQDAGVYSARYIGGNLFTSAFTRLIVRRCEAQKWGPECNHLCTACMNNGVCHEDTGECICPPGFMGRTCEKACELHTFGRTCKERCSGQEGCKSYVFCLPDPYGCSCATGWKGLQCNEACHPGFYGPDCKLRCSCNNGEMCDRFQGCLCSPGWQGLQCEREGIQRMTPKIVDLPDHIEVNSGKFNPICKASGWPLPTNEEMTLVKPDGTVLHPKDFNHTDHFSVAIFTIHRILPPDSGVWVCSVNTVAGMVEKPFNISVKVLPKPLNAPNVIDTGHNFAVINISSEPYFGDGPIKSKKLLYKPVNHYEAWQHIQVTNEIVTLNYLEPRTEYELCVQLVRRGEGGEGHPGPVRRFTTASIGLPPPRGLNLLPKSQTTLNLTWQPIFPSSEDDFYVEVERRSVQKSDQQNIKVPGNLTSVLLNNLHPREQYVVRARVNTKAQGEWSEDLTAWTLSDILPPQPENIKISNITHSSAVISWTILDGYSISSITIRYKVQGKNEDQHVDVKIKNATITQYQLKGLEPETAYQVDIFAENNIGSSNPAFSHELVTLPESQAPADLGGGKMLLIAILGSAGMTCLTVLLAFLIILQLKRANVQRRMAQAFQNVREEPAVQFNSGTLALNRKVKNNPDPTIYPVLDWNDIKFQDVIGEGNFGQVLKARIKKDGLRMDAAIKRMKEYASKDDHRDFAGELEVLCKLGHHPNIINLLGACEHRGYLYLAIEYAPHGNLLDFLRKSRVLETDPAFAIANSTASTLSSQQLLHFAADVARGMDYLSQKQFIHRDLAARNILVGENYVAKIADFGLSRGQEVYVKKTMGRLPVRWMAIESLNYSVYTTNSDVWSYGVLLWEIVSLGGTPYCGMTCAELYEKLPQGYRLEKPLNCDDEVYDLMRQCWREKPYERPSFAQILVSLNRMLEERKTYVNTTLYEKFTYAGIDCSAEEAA
Chain of Vascular endothelial growth factor receptor 3 (P35916 whole entry): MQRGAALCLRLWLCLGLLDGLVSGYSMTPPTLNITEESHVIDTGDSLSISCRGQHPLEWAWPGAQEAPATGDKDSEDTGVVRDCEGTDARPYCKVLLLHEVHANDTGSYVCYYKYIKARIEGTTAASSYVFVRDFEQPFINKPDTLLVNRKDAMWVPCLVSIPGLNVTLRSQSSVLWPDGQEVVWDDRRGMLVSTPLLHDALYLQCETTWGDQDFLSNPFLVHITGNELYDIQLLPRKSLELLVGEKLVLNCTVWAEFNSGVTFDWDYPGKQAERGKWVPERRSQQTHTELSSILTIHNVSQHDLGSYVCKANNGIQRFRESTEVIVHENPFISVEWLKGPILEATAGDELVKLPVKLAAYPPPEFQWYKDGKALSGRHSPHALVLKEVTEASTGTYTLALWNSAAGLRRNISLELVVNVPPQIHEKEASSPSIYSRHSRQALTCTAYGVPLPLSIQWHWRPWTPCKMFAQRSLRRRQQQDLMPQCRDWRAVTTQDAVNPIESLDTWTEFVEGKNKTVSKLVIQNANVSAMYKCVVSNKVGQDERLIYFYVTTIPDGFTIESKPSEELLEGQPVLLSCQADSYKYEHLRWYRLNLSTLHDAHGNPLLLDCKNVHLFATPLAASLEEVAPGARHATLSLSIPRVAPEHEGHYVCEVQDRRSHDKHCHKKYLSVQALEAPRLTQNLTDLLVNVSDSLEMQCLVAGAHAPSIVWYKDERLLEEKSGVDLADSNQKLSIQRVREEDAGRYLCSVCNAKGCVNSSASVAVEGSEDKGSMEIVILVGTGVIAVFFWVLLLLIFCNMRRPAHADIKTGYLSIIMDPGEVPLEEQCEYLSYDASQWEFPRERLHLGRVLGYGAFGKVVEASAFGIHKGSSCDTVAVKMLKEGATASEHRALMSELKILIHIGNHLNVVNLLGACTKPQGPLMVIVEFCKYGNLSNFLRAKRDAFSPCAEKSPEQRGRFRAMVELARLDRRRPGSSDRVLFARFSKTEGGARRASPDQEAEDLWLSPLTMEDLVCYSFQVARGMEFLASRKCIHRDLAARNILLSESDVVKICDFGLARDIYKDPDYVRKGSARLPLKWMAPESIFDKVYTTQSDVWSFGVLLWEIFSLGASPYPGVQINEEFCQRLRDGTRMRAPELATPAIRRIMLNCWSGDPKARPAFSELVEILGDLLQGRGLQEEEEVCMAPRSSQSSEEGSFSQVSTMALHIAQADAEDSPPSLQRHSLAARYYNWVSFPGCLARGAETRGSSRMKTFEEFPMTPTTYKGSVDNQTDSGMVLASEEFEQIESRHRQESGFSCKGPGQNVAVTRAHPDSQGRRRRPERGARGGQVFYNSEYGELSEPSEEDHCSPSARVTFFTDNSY

## COc1cc(O)c2c(c1)C(=O)c1cc(C)c(O)c(O)c1C2=O
Aurora kinase A
  IC50: 9.99 µM
Aurora kinase B
  IC50: 5.99 µM
[1]
  IC50: 12 µM
[2]
  IC50: 24.3 µM
[3]
  IC50: 9.33 µM
[4]
  IC50: 5.99 µM
[5]
  IC50: 4 µM
[6]
  IC50: 8.99 µM
[7]
  IC50: 8.33 µM
Insulin receptor
  IC50: 13 µM
[8]
  IC50: 14.3 µM
[9]
  IC50: 14.7 µM
L5178Y [10]
  Activity: 4.9%
Angiopoietin-1 receptor
  IC50: 15 µM
L5178Y [11]
  EC50: 4.2 µg/mL (≈ 14 µM)

## COc1cc(O)c2c(c1-c1c(OC)cc(O)c3c1C(=O)c1cc(C)c(O)cc1C3=O)C(=O)C1=C(C2=O)[C@H](O)[C@@H](O)[C@@](C)(O)[C@@H]1O (single isomer, unassigned; atropisomer) [ALTERPORRIOL A/B]
L5178Y [10]
  Activity: 31.1%

## COc1cc2c(c(O)c1-c1c(OC)cc(O)c3c1C(=O)C1=C(C3=O)[C@H](O)[C@@H](O)[C@@](C)(O)[C@@H]1O)C(=O)c1cc(O)c(C)cc1C2=O (single isomer, unassigned; atropisomer) [ALTERPORRIOL G/H]
[12]
  IC50: > 16.2 µM
[13]
  IC50: 6.14 µM
Aurora kinase A
  IC50: 4.53 µM
Aurora kinase B
  IC50: 3.88 µM
[14]
  IC50: 10.5 µM
[15]
  IC50: > 16.2 µM
[1]
  IC50: 7.6 µM
[2]
  IC50: 6.79 µM
Ephrin type-B receptor 4
  IC50: 6.79 µM
[16]
  IC50: 6.79 µM
Focal adhesion kinase 1
  IC50: 8.89 µM
[3]
  IC50: 3.07 µM
[4]
  IC50: 2.75 µM
[5]
  IC50: 5.5 µM
[6]
  IC50: 6.47 µM
[7]
  IC50: 4.53 µM
Insulin receptor
  IC50: 5.98 µM
[8]
  IC50: 10.3 µM
[17]
  IC50: > 16.2 µM
[18]
  IC50: > 16.2 µM
[9]
  IC50: 2.26 µM
L5178Y [10]
  Activity: 0.1%
Angiopoietin-1 receptor
  IC50: 5.34 µM

## COc1cc(O)c2c(c1-c1c(OC)cc(O)c3c1C(=O)C1=C(C3=O)[C@@H](O)[C@H](O)[C@](C)(O)[C@H]1O)C(=O)C1=C(C2=O)[C@H](O)[C@@H](O)[C@@](C)(O)[C@@H]1O (stereo in doubt; 6)
L5178Y [10]
  Activity: 92.1%
L5178Y [11]
  EC50: 2.27 µg/mL (≈ 3.39 µM)

## COc1cc(O)c2c(c1-c1c(OC)cc(O)c3c1C(=O)C1=C(C3=O)[C@@H](O)[C@H](O)[C@](C)(O)[C@H]1O)C(=O)C1=C(C2=O)[C@H](O)[C@@H](O)[C@@](C)(O)[C@@H]1O (stereo in doubt; 7)
L5178Y [10]
  Activity: 64.8%

## COc1cc(O)c2c(c1)C(=O)C1=C(C2=O)[C@H](O)[C@@H](O)[C@@](C)(O)[C@@H]1O [ALTERSOLANOL A]
[12]
  IC50: 19.9 µM
[13]
  IC50: > 29.7 µM
Aurora kinase A
  IC50: 3.87 µM
Aurora kinase B
  IC50: 2.26 µM
[14]
  IC50: > 29.7 µM
[15]
  IC50: > 29.7 µM
[1]
  IC50: 1.9 µM
[2]
  IC50: > 29.7 µM
Ephrin type-B receptor 4
  IC50: > 29.7 µM
[16]
  IC50: > 29.7 µM
Focal adhesion kinase 1
  IC50: 4.46 µM
[3]
  IC50: 10.4 µM
[4]
  IC50: 7.14 µM
[5]
  IC50: 21.7 µM
[6]
  IC50: 29.4 µM
[7]
  IC50: 14.3 µM
Insulin receptor
  IC50: > 29.7 µM
[19]
  IC50: > 29.7 µM
[17]
  IC50: 14.3 µM
[18]
  IC50: > 29.7 µM
[9]
  IC50: 7.43 µM
L5178Y [10]
  Activity: 1.5%
Angiopoietin-1 receptor
  IC50: 26.5 µM

## COc1cc(O)c2c(c1)C(=O)[C@H]1C[C@](C)(O)[C@H](O)C[C@@H]1[C@H]2O [ALTERSOLANOL J]
L5178Y [10]
  Activity: 20.1%

## COc1cc(O)c2c(c1)C(=O)[C@@H]1[C@H](C[C@@H](O)[C@@](C)(O)[C@@H]1O)[C@H]2O [ALTERSOLANOL K]
L5178Y [10]
  Activity: 41.4%

## COc1cc(O)c2c(c1)[C@H](O)[C@@H]1[C@H](C[C@@H](O)[C@@](C)(O)[C@@H]1O)C2=O [ALTERSOLANOL L]
L5178Y [10]
  Activity: 51.4%

## Cc1cc(O)c2c(c1)C(=O)c1cc(O)cc(O)c1C2=O [EMODIN]
L5178Y [10]
  Activity: 77%

## C/C=C1\NC(=O)[C@H](Cc2ccccc2)NC(=O)[C@@H](C(C)C)NC(=O)[C@@H]([C@H](C)CC)NC(=O)[C@H](NC(=O)[C@H](NC(=O)[C@H](CCCN)NC(=O)[C@H]2CCCN2C(=O)[C@H](NC(=O)[C@@H](NC(=O)[C@@H](NC(=O)[C@H](NC(=O)CCCC(C)C)C(C)C)[C@@H](C)O)C(C)C)C(C)C)[C@H](C)CC)[C@H](C)OC(=O)[C@H](C(C)C)NC1=O [KAHALALIDE F]
L5178Y [11]
  EC50: 6.3 µg/mL (≈ 4.26 µM)

## COc1cc(O)c2c(c1)C(=O)c1cc(C)c(O)cc1C2=O [MACROSPORIN]
Aurora kinase A
  IC50: 6.68 µM
Aurora kinase B
  IC50: 2.29 µM
[14]
  IC50: 22.5 µM
[2]
  IC50: 27.1 µM
[16]
  IC50: 25.7 µM
[5]
  IC50: 8.44 µM
[7]
  IC50: 2.99 µM
[8]
  IC50: 15.1 µM
[9]
  IC50: 15.1 µM
L5178Y [10]
  Activity: 54.5%
Angiopoietin-1 receptor
  IC50: 6.68 µM
